The values that follow come from patent US9060966B2, “Use of 2,5-dihydroxybenzene derivatives for the treatment of arthritis and pain” (priority 2006, dated 2015).

Test [1] deals with intestinal inflammatory disease (IID) induced by DSS. Description: Intestinal inflammatory disease induced by dextran sulfate sodium in mice. The format is in vivo. The settings on record: for disease clinical score (0 to 6 scale): first two DSS cycles. Here is the method:
The mice were subject to two 7-day cycles of exposure to dextran sulfate sodium (DSS) (from day 1 to 7 and from day 14 to 21) in the drinking water separated by 7 days in which regular water was provided (from 7 to 14). One group was treated with vehicle (0.9% NaCl), another with Solu-Medrol (10 mg/kg/day i.m.), and the other two groups with potassium 2,5-diacetoxybenzene sulfonate (DABS), one of them with 100 mg/kg/day i.p. and the other with 125 mg/kg/day, orally (p.o.). The body weight was normalized on day 0. Data are expressed as the mean±SD of the percentage of the basal weight (day 0) of 10 mice per group.
The mice were subject to two 7-day cycles of exposure to dextran sulfate sodium (DSS) (from day 1 to 7 and from day 14 to 21) in the drinking water separated by 7 days in which regular water was provided (from 7 to 14). One group was treated with vehicle (0.9% NaCl), another with Solu-Medrol (10 mg/kg/day i.m.), and the other two groups with potassium 2,5-diacetoxybenzene sulfonate (DABS), one of them with 100 mg/kg/day i.p. and the other with 125 mg/kg/day, orally (p.o.) Data are expressed as the mean±SD of the clinical score of the disease continuously obtained from 10 mice per each group.
The induction of the intestinal inflammatory disease described below is a representative model for the evaluation of therapeutic strategies to treat Crohn's disease and ulcerative colitis. 7-8 week old female mice of strain C57BL/6J-664 were used. The intestinal inflammatory disease (IID) was induced by feeding the mice with 3% dextran sulfate sodium (DSS; MW 40,000) dissolved in drinking water in 2 cycles. Each cycle consisted of 7 days with 3% DSS in the drinking water separated by 7 days with regular water. A daily clinical evaluation of the animals was performed in which the body weight, the consistency of the faeces and the presence of blood in the faeces were determined. Thus, the validated score of the clinical activity of the disease was evaluated with a 0 to 6 scale, considering the following parameters: consistency of the faeces, presence or absence of fecal blood and loss of weight.
At the end of the first cycle of exposure to DSS, the mice were divided into the following treatment groups: a first group was administered intraperitoneal (i.p) injections of vehicle (0.9% NaCl). Another group received intramuscular injections of Solu-Medrol, a standard IID treatment, at a dose of 10 mg/kg/day. A third group was administered i.p. injections of potassium 2,5-diacetroxybenzene sulfonate (DABS, 100 mg/kg/day). The last group was treated orally with 125 mg/kg day of DABS.

In a further test the test system is Nakagawa angioblastoma. The test can be described thus: Topical treatment of Nakagawa angioblastoma (hemangioblastoma) in a child. Conditions: cream 2.5%, topical twice a day, 1 month, one child. The format is in vivo, human. From the text:
Photographs showing the effects of a topical treatment with a cream comprising 2,5-dihydroxybenzenesulfonic (DHBS) in a child suffering from Nakagawa angioblastoma.
The cream comprising 2,5-dihydroxybenzene sulfonic (2.5%) was topically applied twice a day during 1 month on the face of the child suffering from Nakagawa angioblastoma.

In the case of `CC(=O)Oc1ccc(OC(C)=O)c(S(=O)(=O)[O-])c1.[K+]` [DABS, potassium 2,5-diacetoxybenzene sulfonate], the “disease clinical score (0 to 6 scale)” value in test [1] (100 mg/kg/day i.p.) and in test [1] (125 mg/kg/day oral) was “reduced” in each case. Also, the “loss of weight produced by the two cycles of exposure to DSS” value in test [1] (DABS 100 mg/kg/day i.p. or 125 mg/kg/day p.o., routes not distinguished) is “reduced”. Besides, the “efficacy compared with the standard treatment Solu-Medrol” value in test [1] (body weight and clinical score, Solu-Medrol 10 mg/kg/day i.m.) is on record as “not lower (in some points it is higher)”.
In the case of `O=S(=O)(O)c1cc(O)ccc1O` [DHBS, 2,5-dihydroxybenzenesulfonic acid], the “intensity of the coloration caused by the lesion” value in the test with Nakagawa angioblastoma was “decrease in the intensity of the coloration”; in the test with Nakagawa angioblastoma (listed as 2,5-dihydroxybenzene sulfonic), “reduction in the intensity of the reddish coloration”.
